# According to article PMC6748984, “The coral Platygyra verweyi exhibits local adaptation to long-term thermal stress through host-specific physiological and enzymatic response” (Scientific Reports, 2019):
# Read-outs that look alike come from different tables or passages of the source.
# Columns and labels:
# [1] = system: T1, MDH (malate dehydrogenase, major isozyme, DEAE peak II) of P. verweyi from WLT; assay: NADH oxidation, absorbance at […] nm; format: biochemical, Platygyra verweyi; details: 100 mM phosphate pH 7.0, about 27 °C, read-out: apparent Km
# T1 construct: gene MDH1; native, purified from host tissue extract of symbiotic coral; about 38 kDa by SDS-PAGE, native about 64 kDa, dimer
# [2] = system: T2, MDH (malate dehydrogenase, major isozyme, DEAE peak II) of P. verweyi from NPP-OL; assay: NADH oxidation, absorbance at […] nm; format: biochemical, Platygyra verweyi; details: 100 mM phosphate pH 7.0, about 27 °C, read-out: apparent Km
# T2 construct: gene MDH1; native, purified from host tissue extract of symbiotic coral; about 39 kDa by SDS-PAGE, native about 67 kDa, dimer
# [3] = OAA varied 14-29 µM, NADH fixed (3 mM as printed)
# [4] = NADH varied 38-95 µM, OAA fixed (1 mM [sic])
Structure (SMILES),"Km [1, 3] [µM]","Km [2, 3] [µM]","Km [1, 4] [µM]","Km [2, 4] [µM]"
O=C(O)CC(=O)C(=O)O [oxaloacetate],5.7,9.4,,
NC(=O)C1=CN([C@@H]2O[C@H](COP(=O)(O)OP(=O)(O)OC[C@H]3O[C@@H](n4cnc5c(N)ncnc54)[C@H](O)[C@@H]3O)[C@@H](O)[C@H]2O)C=CC1 [NADH],,,12.7,7.5
